Source: article PMC9012159, “A comparative biodistribution study of polymeric and lipid-based nanoparticles” (Drug Delivery and Translational Research, 2022)
Values belong to the compound of their own block, whether it stands above or below them.

Assay: PEBCA pharmacokinetics and biodistribution study in rats (Cbz and metabolites by LC-MS/MS)
Assay type: in vivo, rat
Conditions: for detection of possible Cbz metabolite in samples: all tissue and serum samples after PEBCA, LC-MS/MS; for peak concentration ratio organ:blood, fold higher for Cbz than for IR780-oleyl: highest doses
Procedure: Male Wistar rats were purchased at 8 weeks of age from Janvier Labs (France). They were housed in groups of four in individually ventilated cages in a specific pathogen-free environment at 22–23 °C and 50–60% relative humidity, on a 12-h light/dark cycle and with 70 air changes per hour and free access to food and sterile water. They were fed RM1 expanded pellets (Special Diets Services, Essex, UK), and the cages were enriched with housing, nesting material and gnaw sticks. All institutional and national guidelines for the care and use of laboratory animals were followed. Experiments were performed in Norway.
During all experiments, the animals were anaesthetized by inhalation of 2–3% isoflurane (Baxter, Deerfield, IL, USA). Anaesthesia was maintained with isoflurane in 0.4 L/min O2 and 0.6 L/min N2O.
To perform the pharmacokinetics and biodistribution study, the animals were separated into 2 groups according to dose: • Low dose PEBCA-Cbz, 0.5 mg/kg Cbz (4.4 mg/kg NPs) • High dose PEBCA-Cbz, 3.5 mg/kg Cbz (30.5 mg/kg NPs)
Details about the treatment groups are available in Table 1. Before injection, the particles were diluted in 0.9% saline to a concentration that corresponded to an injection volume of 2 mL/kg. In addition to the treated animals, 6 sham-treated (injected with 0.9% saline 2 mL/kg) animals were used. The sham-treated animals were euthanized at 2, 4 and 14 days, two at each time point. Animals were injected intravenously once.
Blood samples on time points 1–30 min and 4 h (Table 2) were performed on conscious animals, and all other blood samples were collected during exsanguination. The leg of the animal was shaved to expose the saphenous vein. Petrolatum was applied to the shaved area and the saphenous vein was punctured using a 19G needle. Into tubes containing blood clotting activator, 300–500 µL blood was collected (Microvette 500 Serum, Sarstedt AG & Co. KG, Germany). The tubes were turned 3–4 times, left for 60 min in upright position at room temperature to allow clot formation before centrifugation at 10 000 rcf for 5 min. The serum was immediately transferred to new tubes and stored at − 80 °C until LC–MS/MS analysis.
Cbz was quantified by LC–MS/MS, using the same instrumentation and chromatographic column as described for IR-780-oleyl quantification above. […] The flow rate was constant at 0.5 mL/min and the injection volume was 1 µL. […] Similarly, Cbz-d6 and docetaxel-d5 internal standards were monitored at m/z 864.4 → 583.2 and 835.5 → 554.3, respectively.
7-Methyl-docetaxel was purchased from SynZeal Research (Moraiya, India, catalogue number SZ-D031010), 10-methyl-docetaxel from Eos Med Chem (Jinan, China, custom synthesis), docetaxel from Sigma (Fluka, product number 01885) and 7-epi-docetaxel from Santa Cruz Biotechnology (Dallas, USA, product number SC-210610).
The Cbz-d6 and docetaxel-d5 internal standards were purchased from Toronto Research Chemicals (Toronto, Canada, catalogue numbers C046502 and D494423, respectively). A mix of the two internal standards was added to all standards and samples to yield a final concentration of 50 ng/mL.

detection of possible Cbz metabolite in samples (rat): no 7-epi-docetaxel
SMILES: CC(=O)O[C@@]12CO[C@@H]1C[C@@H](O)[C@@]1(C)C(=O)[C@H](O)C3=C(C)[C@@H](OC(=O)[C@H](O)[C@@H](NC(=O)OC(C)(C)C)c4ccccc4)C[C@@](O)([C@@H](OC(=O)c4ccccc4)[C@H]21)C3(C)C [7-epi-docetaxel]

SMILES: CO[C@H]1C[C@H]2OC[C@@]2(OC(C)=O)[C@H]2[C@H](OC(=O)c3ccccc3)[C@]3(O)C[C@H](OC(=O)[C@H](O)[C@@H](NC(=O)OC(C)(C)C)c4ccccc4)C(C)=C([C@@H](O)C(=O)[C@]12C)C3(C)C [7-methyl-docetaxel]
detection of possible Cbz metabolite in samples (rat): No 7-methyl-docetaxel was observed in any sample

metabolite concentration in brain (Cbz metabolites after PEBCA, even at high dose administered, rat, negligible): 0.2 ng/g
metabolite concentration in serum relative to Cbz in the same sample (after PEBCA, rat serum, found only up to the 15-min sampling point): ≤ 0.5%
SMILES: CO[C@H]1C(=O)[C@@]2(C)[C@H]([C@H](OC(=O)c3ccccc3)[C@]3(O)C[C@H](OC(=O)[C@H](O)[C@@H](NC(=O)OC(C)(C)C)c4ccccc4)C(C)=C1C3(C)C)[C@]1(OC(C)=O)CO[C@@H]1C[C@@H]2O [10-m-Doc, 10-methyl-docetaxel]

sampling point at which the organ:blood ratio reaches its peak (Cbz after PEBCA, in most cases, rat): 24 h
dose response (concentration ratio normalized to injected dose) (Cbz after PEBCA, majority of organs and time points, rat): > 1
dose response (concentration ratio normalized to injected dose) (Cbz after PEBCA, serum, rat): < 1
Lung Cmax (Cbz measured after PEBCA high dose, 3.5 mg/kg Cbz (30.5 mg/kg NPs) i.v., rat, n = 4): 7593 ng/g
measured concentration ratio all organs vs. blood, fold higher for cabazitaxel as compared to IR780-oleyl (all organs, rat (abstract)): more than 50 fold
peak concentration ratio organ:blood, fold higher for Cbz than for IR780-oleyl (all tissues except liver, rat): at least 100 fold
peak concentration ratio organ:blood, fold higher for Cbz than for IR780-oleyl (liver, rat): about 50 fold
decrease in serum concentration of Cbz (within the first 4 h after PEBCA injection, rat serum): ~100 fold
SMILES: CO[C@H]1C(=O)[C@]2(C)[C@@H](OC)C[C@H]3OC[C@@]3(OC(C)=O)[C@H]2[C@H](OC(=O)c2ccccc2)[C@]2(O)C[C@H](OC(=O)[C@H](O)[C@@H](NC(=O)OC(C)(C)C)c3ccccc3)C(C)=C1C2(C)C [Cbz, cabazitaxel]
